Values of other authors, collected in patent publication US12662501B2, “Transcriptome In Vivo Analysis (TIVA) and Transcriptome In Situ Analysis (TISA)” (The Trustees of the University of Pennsylvania, priority 2014, dated 2026).

How the values were obtained:
[1] = for Eop: 1MLCT Ru→bpy(π1*) transition; for λmax: 1MLCT band

SMILES	Eop [1]	λmax [1]	ε (1P, 424 nm)	Φ (RuBi-caged GABA)	εΦ (RuBi-caged GABA, 1P, 424 nm)
[Ru+2].c1ccc(-c2ccccn2)nc1.c1ccc(-c2ccccn2)nc1.c1ccncc1.c1ccncc1 [(Pyr)2]	21980 cm⁻¹	455 nm			
F[P-](F)(F)(F)(F)F.NCCCC(=O)[O-].[Ru+2].c1ccc(-c2ccccn2)nc1.c1ccc(-c2ccccn2)nc1.c1ccc(P(c2ccccc2)c2ccccc2)cc1 [RuBi-caged GABA]			6400 M⁻¹ cm⁻¹	0.2	1280
Cn1ccnc1.Cn1ccnc1.[Ru+2].c1ccc(-c2ccccn2)nc1.c1ccc(-c2ccccn2)nc1 [(N-MeIm)2]	20700 cm⁻¹	483 nm			
[Ru+2].c1ccc(-c2ccccn2)nc1.c1ccc(-c2ccccn2)nc1.c1ccc(P(c2ccccc2)c2ccccc2)cc1.c1ccc(P(c2ccccc2)c2ccccc2)cc1 [(PPh3)2]	23870 cm⁻¹	419 nm			
N.N.[Ru+2].c1ccc(-c2ccccn2)nc1.c1ccc(-c2ccccn2)nc1 [(NH3)2]	20410 cm⁻¹	490 nm			
CC(=O)c1ccncc1.CC(=O)c1ccncc1.[Ru+2].c1ccc(-c2ccccn2)nc1.c1ccc(-c2ccccn2)nc1 [(4-AcPyr)2]	22620 cm⁻¹	442 nm			
C=CCn1cnnc1 [4-ally1-1,2,4-triazole]	21190 cm⁻¹	472 nm			
CCSC.CCSC.[Ru+2].c1ccc(-c2ccccn2)nc1.c1ccc(-c2ccccn2)nc1 [(MeSEt)2]	23697 cm⁻¹	422 nm			
CSc1ccccc1.CSc1ccccc1.[Ru+2].c1ccc(-c2ccccn2)nc1.c1ccc(-c2ccccn2)nc1 [(MeSPh)2]	24752 cm⁻¹	404 nm			
